This passage reports GI50 and TGI results from PubChem BioAssay (NCI).

Holding throughout (assay): NCI tumour cell line growth inhibition, 48 h
Test [1] has as its system U251 CNS.
Test [2] concerns SK-OV-3 ovarian.
Test [3] concerns HT29 colon.
For test [4], the system named is OVCAR-8 ovarian.
For test [5], the system named is EKVX NSCLC.
Test [6] has as its system OVCAR-5 ovarian.
The test system of test [7] is A498 renal.
In test [8] the test system is SR leukemia.

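Assay format: 96-well plates, 48-hour exposure. GI50 = concentration required for 50% inhibition of growth. Definition used: TGI = concentration required for complete inhibition of growth.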

For `Cc1[nH]nc(C(F)(F)F)c1Cc1sc2c(c1C(=O)N1C[C@](C)(O)CO1)c(=O)n(C)c(=O)n2C(C)C`, the GI50 in test [1], in test [2], in test [3], in test [4], in test [5] and in test [6] was > 100 µM throughout. The GI50 in test [7] is 47.3 µM. For the same molecule, the TGI in test [1], in test [2], in test [3], in test [4], in test [5] and in test [6] was > 100 µM throughout. Moreover, in test [7], the TGI is > 100 µM.

As to `O=C(Nc1ccc(Cl)c(Cl)c1)c1ccc(NC2=C(Cl)C(=O)N(Cc3ccccc3)C2=O)cc1`, the GI50 is 21.5 µM in test [2]; 16.5 µM in test [3]; 2.6 µM in test [4]; 2.23 µM in test [8]; 23.3 µM in test [5]; 2.95 µM in test [6]. The GI50 in test [7] is 17.6 µM. Moreover, the TGI in test [2] was 44 µM; in test [3] it was > 100 µM; in test [4], 4.41 µM; in test [8] it was 5.27 µM; in test [5], 48.6 µM; in test [6], 8.91 µM. Also, in test [7], the TGI turned out to be 36.8 µM.

Turning to `COC(=O)C1=C(C)NC(C)=C(C(=O)OC)C1c1cccc(/[N+]([O-])=C/c2ccccc2)c1`, the TGI in test [1] was > 100 µM; in test [2], > 100 µM; in test [3], 87.4 µM; in test [4], 32.7 µM; in test [8], 62 µM; in test [5], > 100 µM. Moreover, the TGI in test [6] is > 100 µM.

As to `COC(=O)C1=C(C)NC(=S)NC1c1ccc(N(CCCl)CCCl)cc1Cl` (stereo not given), the TGI in test [1] is > 100 µM; in test [2], > 100 µM; in test [3], > 82.8 µM; in test [4] it was > 100 µM; in test [5], > 37.8 µM; in test [6], > 100 µM. In test [7], the TGI was > 100 µM. Also, the GI50 in test [7] is 46.9 µM.

For `CCC[CH2][Sn]1([CH2]CCC)[O]C(=O)c2cccc([N+](=O)[O-])c2C(=O)[O]1`, the GI50 is 0.633 µM in test [1]; 1.69 µM in test [2]; 1.31 µM in test [3]; 1.04 µM in test [4]; 0.28 µM in test [8]; 1.11 µM in test [6]. Moreover, in test [7], the GI50 was 0.191 µM. The TGI in test [1] was 1.94 µM; in test [2] it was 3.07 µM; in test [3], 2.87 µM; in test [4], 2.24 µM; in test [8], 1.97 µM; in test [6], 2.49 µM. This molecule also yielded a TGI in test [7] of 0.547 µM.

On to `CC(=O)C(CN1C(=O)c2ccccc2C1=O)C(C)=O`, for which the TGI in test [1], in test [2], in test [3], in test [4], in test [5] and in test [6] was > 100 µM in each case. Further, the TGI in test [7] is > 100 µM.

`CCN1CCN(C(=O)[C@]23CC[C@@H](C)[C@H](C)[C@@H]2C2=CC[C@@H]4[C@@]5(C)CCC(=O)C(C)(C)[C@@H]5CC[C@@]4(C)[C@]2(C)CC3)CC1`: the GI50 in test [1] is 0.854 µM; in test [2] it was 1.51 µM; in test [3], 0.913 µM; in test [4], 1.1 µM; in test [5], 0.916 µM; in test [6], 0.907 µM. Moreover, the GI50 in test [7] was 0.927 µM. In addition, the TGI in test [1] came out at 1.85 µM; in test [2], 4.83 µM; in test [3] it was 2.05 µM; in test [4] it was 2.89 µM; in test [5] it was 2.42 µM; in test [6], 1.87 µM. The molecule also came in with a TGI in test [7] of 2.42 µM.

Regarding `CC(C)(C)NCC(O)c1ccccc1Cl` (stereo not given), the GI50 in test [1], in test [2], in test [3], in test [4], in test [5] and in test [6] was > 100 µM in each case. In addition, the GI50 in test [7] was > 100 µM. Besides, the TGI in test [1], in test [2], in test [3], in test [4], in test [5] and in test [6] was > 100 µM each time. The TGI in test [7] is > 100 µM.

Regarding `COc1ccc(/C(=N/O)c2ccccc2C2=Nc3ccccc3C(NCc3ccccc3)O2)cc1C` (stereo not given), the TGI is > 100 µM in test [1]; 82.5 µM in test [2]; > 100 µM in test [3]; 77.1 µM in test [4]; > 100 µM in test [8]; > 100 µM in test [5]. Further, the TGI in test [6] was > 100 µM.

Consider `Cc1nc(N)c(N2CCN(S(=O)(=O)N(Cc3ccccc3)Cc3ccccc3)CC2)c(=O)[nH]1`, for which the TGI in test [1] is 36.8 µM; in test [3] it was 63.3 µM; in test [4], > 100 µM; in test [8], > 100 µM; in test [5], > 100 µM; in test [6], 73.5 µM.

Regarding `Cc1cc(OCc2ccc(C(F)(F)F)cc2)c2c(c1)C(=O)C=C(NCCN1CCCC1)C2=O`, the GI50 in test [1] is 1.72 µM; in test [2], 3.45 µM; in test [3], 1.94 µM; in test [4] it was 3.25 µM; in test [8] it was 2.6 µM; in test [6], 3.39 µM. Moreover, in test [7], the GI50 is 2.69 µM. Moreover, the TGI in test [1] amounted to 3.45 µM; in test [2], 10.6 µM; in test [3], 5.01 µM; in test [4], 12.1 µM; in test [8], 6.97 µM; in test [6], 12.3 µM. Also, the TGI in test [7] was found to be 12.8 µM.

For `NS(=O)(=O)c1ccc(-n2nc3c(c2-c2cccs2)Cc2ccccc2-3)cc1`, the GI50 in test [1] is 12.3 µM; in test [2] it was 37.7 µM; in test [3], 22.9 µM; in test [4], 20.5 µM; in test [5], 11.9 µM; in test [6], 18.5 µM. Besides, the TGI in test [1] is 25.8 µM; in test [2], > 100 µM; in test [3], 59.4 µM; in test [4] it was 41.6 µM; in test [5], 29.4 µM; in test [6], 48 µM.

Take `CC(NNC(=S)N1CCN(c2ccccn2)CC1)c1nccc2ccccc12` (stereo not given): the TGI in test [1] was 14.3 µM; in test [2] it was 15.1 µM; in test [3], 19.1 µM; in test [4], 15.7 µM; in test [5], 11.4 µM; in test [6], 14.2 µM. In test [7], this molecule came in with a TGI of 17.3 µM.

Regarding `[N-]=[N+]=C(C(=O)CN1CCCC1=O)S(=O)(=O)c1ccccc1`, the TGI in test [1], in test [3], in test [4], in test [8], in test [5] and in test [6] was > 100 µM each time.

For `COc1nn(C)cc1Nc1nccc(-c2c[nH]c3c(NC(=O)[C@@H](C)N4CCN(C)CC4)cccc23)n1`, the GI50 in test [1] was 43.7 µM; in test [2], 44.2 µM; in test [3], 29.4 µM; in test [4], > 100 µM; in test [5], 47 µM; in test [6], 42.5 µM. The GI50 in test [7] is 15.9 µM. Also, the TGI in test [1], in test [2], in test [3], in test [4], in test [5] and in test [6] was > 100 µM throughout. Besides, the TGI in test [7] stood at 45.2 µM.

On to `O=[N+]([O-])c1c(O)c2nonc2c2nn(-c3ccccc3)nc12`, for which the TGI in test [1], in test [2], in test [3], in test [4], in test [8] and in test [5] was > 100 µM each time. Besides, the TGI in test [6] is > 100 µM.

As to `CC(=O)C1=C(C)N(Cc2ccccc2)C2(O)C=CC(=O)C3=C(O)c4ccccc4C(=O)C312` (stereo not given), the GI50 in test [1] was 3.38 µM; in test [2], 18.3 µM; in test [3] it was 3.71 µM; in test [4], 6.25 µM; in test [5], 16.4 µM; in test [6] it was 6.28 µM. For the same molecule, in test [7], the GI50 was 22.7 µM. The TGI in test [1] is 10.2 µM; in test [2], 42.4 µM; in test [3], > 100 µM; in test [4], 30 µM; in test [5], 33.8 µM; in test [6] it was 25 µM. The same molecule had a TGI in test [7] of 38.1 µM.

For `O=C(O)c1cc(NCc2cc(O)ccc2O)ccc1O`, the TGI in test [1], in test [2], in test [3], in test [5], in test [6] and in test [7] was > 100 µM in each case.

In the case of `CN1C(=O)N(C)C2C1NC(=S)N2/N=C/C=C/c1ccccc1[N+](=O)[O-]` (stereo not given), the GI50 in test [2] was 1.18 µM; in test [4] it was 3.11 µM; in test [5], 3.86 µM; in test [6] it was 3.88 µM; in test [7], 0.513 µM. Also, the TGI is > 100 µM in test [2]; > 100 µM in test [4]; > 100 µM in test [5]; > 100 µM in test [6]; 7.26 µM in test [7].
